Reference: US6932960B2, “N-substituted 3-hydroxy-4-pyridinones and pharmaceuticals containing thereof” (Bristol-Myers Squibb Pharma Company, priority 2002, dated 2005)

Columns and labels:
[1] = Zn(II) binding affinity of the chelator; cited from earlier work
[2] = Zn(II) binding constant (Log KZnL/[Zn][L]), literature values; type: physicochemical; conditions: relative to N-hydroxyacetamide

| Compound | Log KZnL/[Zn][L] [1] | Log KZnL/[Zn][L] fold higher than that of N-hydroxyacetamide [2] |
| --- | --- | --- |
| CC(=O)NO [N-hydroxyacetamide] | < 5 | – |
| Cc1c(O)c(=O)ccn1C [Deferiprone, 1,2-dimethyl-3-hydroxy-4-pyridinone] | 7.19 | about 100 fold |
